Nine compounds from patent publication US20240010659A1, “NEW THIADIAZOLOPYRIMIDONE DERIVATIVES” (Hoffmann-La Roche Inc., priority 2021, published 2024) can be followed below.

pEC50: −log10 of the molar value.

In general, pEC50 refers to −log10 of the EC50, conventionally taken in molar units. The low end stands for a high EC50, the high end for a low EC50.

The subject of the assay is mutant HTT protein (mHTT). Put plainly: Homogeneous Time Resolved Fluorescence (HTRF) assay for HTT lowering in GENEAe020-A cells. The assay is classed as cell-based. As to conditions: reduction of mHTT in Huntington patient human cells (GENEAe020-A cell line), 48 hours incubation, mean from three replicates. Here is the method:
Homogeneous Time Resolved Fluorescence for HTT Lowering
The HTRF assay was adapted from Weiss et al. (Analytical Biochemistry Volume 395, Issue 1, 1 Dec. 2009, Pages 8-15 and Analytical Biochemistry Volume 410, 2011, Pages 304-306) to cells from GENEAe020-A cell line (https://hpscreg.eu/cell-line/GENEAe020-A).
Compounds were tested for the effect of mutant HTT levels in Huntington patient human cells (GENEAe020-A cell line) using Homogeneous Time Resolved Fluorescence (HTRF) directed towards mutant HTT protein (mHTT). The GENEAe020-A cell line was derived by Genea Biocells from human blastocysts of HD donors. After assessing viability, cells were plated into 384 well collagen coated plates in growth media. Once cells adhered, media was removed and test compounds dissolved in DMSO were diluted with buffer solution and added to the adherent cells. Controls included experiments with no cells, DMSO with no compound, and Hsp90 inhibitor control. Cells were incubated with compounds and controls for 48 hours. Then, the cells were lysed and transferred to an assay plate containing HTRF labeled monoclonal antibodies developed by Paul Patterson (Ko et al., Brain Research Bulletin, Volume 56, Numbers 3 and 4, 2001, Pages 319-329) which recognize specific areas of the HTT protein. The terbium labeled “donor” antibody (2B7) binds to the N-terminus of the HTT protein and the Alexa488 labeled “acceptor” antibody (MW1) is specific for the polyglutamine region of the protein. Binding of the acceptor labeled antibody is more efficient for the extended polyglutamine repeats of mutant HTT protein which translates into a signal boost which enables the specific measurement of mutant HTT protein level. The HTRF donor and acceptor detection reagents were incubated with the cell lysate and the ratio between the signals of the two fluorophores is indicative of the relative quantities of mHTT.
In general terms: TR-FRET usually uses a lanthanide donor and a delayed reading to cut background.
With `Cc1cn2cc(-c3cc(=O)n4nc(C5CCNCC5)sc4n3)cc(F)c2n1` [Example 3, 7-(8-fluoro-2-methyl-imidazo[1,2-a]pyridin-6-yl)-2-(4-piperidyl)-[1,3,4]thiadiazolo[3,2-a]pyrimidin-5-one], the pEC50 is 5.13. `Cc1cn2nc(-c3cc(=O)n4nc(C5CCNC6(CC6)C5)sc4n3)cc(C)c2n1` (stereo not drawn) [Example 7, 2-(4-azaspiro[2.5]octan-7-yl)-7-(2,8-dimethylimidazo[1,2-b]pyridazin-6-yl)-[1,3,4]thiadiazolo[3,2-a]pyrimidin-5-one] showed a pEC50 of 6.52. As to `Cc1cn2nc(-c3cc(=O)n4nc(C5CCNC5)sc4n3)cc(C)c2n1` (stereo not drawn) [Example 10, 7-(2,8-dimethylimidazo[1,2-b]pyridazin-6-yl)-2-pyrrolidin-3-yl-[1,3,4]thiadiazolo[3,2-a]pyrimidin-5-one], the pEC50 was 5.28. Consider `Cc1cn2nc(-c3cc(=O)n4nc(C5(F)CCNCC5)sc4n3)cc(C)c2n1` [Example 8, 7-(2,8-dimethylimidazo[1,2-b]pyridazin-6-yl)-2-(4-fluoro-4-piperidyl)-[1,3,4]thiadiazolo[3,2-a]pyrimidin-5-one], for which the pEC50 was 6.50. `Cc1cn2nc(-c3cc(=O)n4nc(C5CCNCC5)sc4n3)cc(C(F)(F)F)c2n1` [Example 9, 7-[2-methyl-8-(trifluoromethyl)imidazo[1,2-b]pyridazin-6-yl]-2-(4-piperidyl)-[1,3,4]thiadiazolo[3,2-a]pyrimidin-5-one] showed a pEC50 of 6.15. As to `Cc1cn2nc(-c3cc(=O)n4nc(N5CCNCC5)sc4n3)cc(C)c2n1` [Example 1, 7-(2,8-dimethylimidazo[1,2-b]pyridazin-6-yl)-2-piperazino-[1,3,4]thiadiazolo[3,2-a]pyrimidin-5-one], the pEC50 is 6.09. Compound `Cc1cn2nc(-c3cc(=O)n4nc(N5C[C@@H](C)N[C@@H](C)C5)sc4n3)cc(C)c2n1` [Example 4, 7-(2,8-dimethylimidazo[1,2-b]pyridazin-6-yl)-2-[(3R,5S)-3,5-dimethylpiperazin-1-yl]-[1,3,4]thiadiazolo[3,2-a]pyrimidin-5-one] showed a pEC50 of 5.69.

Regarding `Cc1cn2nc(-c3cc(=O)n4nc(C5CCNCC5)sc4n3)cc(C)c2n1` [Example 2, 7-(2,8-dimethylimidazo[1,2-b]pyridazin-6-yl)-2-(4-piperidyl)-[1,3,4]thiadiazolo[3,2-a]pyrimidin-5-one], the negative-log EC50 (pEC50) is 6.71. Take `Cc1cn2nc(-c3cc(=O)n4nc(N5CCNC6(CC6)C5)sc4n3)cc(C)c2n1` [Example 6, 2-(4,7-diazaspiro[2.5]octan-7-yl)-7-(2,8-dimethylimidazo[1,2-b]pyridazin-6-yl)-[1,3,4]thiadiazolo[3,2-a]pyrimidin-5-one]: the pEC50 is 5.23. This pEC50 lies 1.48 log units lower than the previous one.
